{
  "source": "patent US20070253961A1",
  "about": "“Pharmaceutical Composition Comprising the Anti-4-1Bb Antibody for Treating or Preventing Rheumatoid Arthritis” (ULSAN INDUSTRIAL EDUCATION FOUNDATION, priority 2003, published 2007)",
  "system": "CIA",
  "experiment": "1-MT (IDO inhibition) reversal of 4-1BB-mediated suppression of CIA",
  "format": "in vivo, mice",
  "description": "Each mouse was injected with 200[…] of purified anti-4-1BB (3H3, rat IgG1), anti-4-1BBL (TKS-1, rat IgG1), or control rat IgG i.p. on PI days 0, 2, 4, 6, and 8. We tested the dose response of the antibodies in vivo by measuring serum IFN-γ levels for anti-4-1BB and suppression of the recall response for anti-4-1BBL. […] To treat established CIA, the mice were injected on PI days 28, 30, 32, 34, and 36. To block IFN-γ mice were injected i.p. every 4 days with 500[…] of purified R4-6A2 on PI days 0, 4, 8, and 12. Rat IgG again served as a control.\nTo inhibit IDO activity, slow-release polymer pellets impregnated with 1-MT (10 mg/day release rate) or placebo pellets (Innovative Research of America, Sarasota, Fla.) were implanted under the dorsal skin 1 day before the immunization. […] Because of the large size of these pellets relative to the small size of the mice, additional experiments were conducted with the implantation of two smaller pellets (10 mg/day release rate) per mouse, each containing 120 mg 1-MT, for a dose of 20 mg/day for 12 days. On day 13, two more pellets were implanted, for a total dosage period of 24 days.",
  "data": [
    {"smiles": "Cn1cc(CC(N)C(=O)O)c2ccccc21", "note": "(racemic) [1-MT, 1-methyl D,L-tryptophan]", "values": [
      {"measurement": "reversal of suppressive effect of anti-4-1BB on CIA", "setting": "5 mg/day 1-MT, with anti-4-1BB", "result": "incomplete"},
      {"measurement": "suppressive effect of anti-4-1BB on CIA", "setting": "20 mg/day dose of 1-MT, slow-release pellets, with anti-4-1BB", "result": "completely reversed"},
      {"measurement": "time of appearance of CIA after 1-MT reversal", "setting": "1-MT with anti-4-1BB, 'in these experiments'", "result": "at the same time as in the control mice"},
      {"measurement": "day disease became evident", "setting": "1-MT-treated mice with 3H3, control mice first showed signs on PI day 30", "result": 48, "unit": "PI day"}
    ]}
  ]
}
